Read-outs that look alike come from different tables or passages of the source. Some results are limits rather than exact numbers.

For one data set, the target named is rat IP (Rattus norvegicus, UniProt P43253). Nature of the data set: HTRF cAMP assay, recombinant rat IP receptor. It is filed as cell-based. The conditions noted are these: for EC50: HTRF (cAMP) rat IP receptor assay, mean of at least three determinations; for Emax: read-out: rIP % IA. Details: expressed in transfected cells. As to the method: (§1) The new compounds were tested for functional agonist activity in a standard (Cisbio) cAMP assay using recombinant IP or DP1 receptors stably expressed in CHO-K1 cells. Clonal cell lines were derived following standard protocols, but receptor expression levels were kept to a minimum to preclude receptor reserve effects.
(§2) For development of cAMP accumulation assays, recombinant IP or DP1 receptors were stably expressed in CHO-K1 cells and clonal cell lines derived following standard protocols. Receptor expression levels were minimized to preclude receptor reserve effects. HTRF cAMP assays were performed according to the manufacturer’s instructions (Cisbio, cAMP Dynamic 2 assay kit; no. 62AM4PEJ). IP receptor-expressing cells were harvested, resuspended in assay buffer (PBS containing 1 mM IBMX and 0.2% BSA) at a density of 200 000 cells per mL, and dispensed into 384-well assay plates (PerkinElmer Proxiplate no. 6008280) at 5 μL per well. Test compounds were solubilized and serially diluted in DMSO using 5-fold dilutions to generate a 10-point dose–response curve with a top concentration of 10 μM. The samples were then further diluted in PBS to achieve a 2× stock. Diluted compounds were then transferred to a triplicate set of assay plates (5 μL per well). After a 1 h incubation at room temperature, 5 μL of cAMP-D2 reagent diluted in lysis buffer was added to each well followed by 5 μL of cryptate reagent. Plates were then incubated at room temperature for 1 h prior to reading. Time-resolved fluorescence measurements were collected on PerkinElmer Envision or BMG Pherastar microplate readers.
For orientation: Time-resolved FRET reads energy transfer from a long-lived donor to a nearby acceptor.

The target of the next data set is T1, human DP1 receptor (Homo sapiens, UniProt Q13258).
T1 construct: expressed in transfected cells
T1 sequence (Q13258 1-359): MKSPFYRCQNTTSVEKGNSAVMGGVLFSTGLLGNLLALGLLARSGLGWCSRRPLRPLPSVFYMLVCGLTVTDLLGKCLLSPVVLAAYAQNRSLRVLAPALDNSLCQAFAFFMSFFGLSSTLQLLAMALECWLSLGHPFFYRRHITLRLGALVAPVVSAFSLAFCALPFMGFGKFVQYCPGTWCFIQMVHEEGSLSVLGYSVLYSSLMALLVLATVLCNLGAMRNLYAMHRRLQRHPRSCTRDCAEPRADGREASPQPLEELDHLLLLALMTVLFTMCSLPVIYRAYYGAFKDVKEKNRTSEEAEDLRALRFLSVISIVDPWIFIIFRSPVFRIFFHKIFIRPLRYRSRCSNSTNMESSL
Nature of the data set: HTRF cAMP assay, recombinant human DP1 receptor in CHO-K1 cells. It is filed as cell-based. The settings on record: for Emax: CHO-K1, intrinsic activity relative to 1 μM PGD2, read-out: hDP1 % IA; for EC50: HTRF (cAMP) human DP1 receptor assay, mean of at least three determinations, read-out: EC50 hDP1. As to the method:
as §1, §2

Another data set deals with human platelet. Nature of the data set: Inhibition of ADP-induced human platelet aggregation. It is filed as cell-based. The settings on record: aggregation induced by 2.5 μM ADP, mean of at least two determinations. As to the method: Such aggregated and activated platelets produce vasoactive substances such as thromboxane and serotonin that may cause harmful vasoconstriction and vascular remodeling.[13] […] This secondary assay was carried out as previously described,[14] with aggregation induced by 2.5 μM ADP in the presence or absence of IP receptor agonists.

For a further data set, the target named is IP (Homo sapiens, UniProt P43119). Nature of the data set: HTRF cAMP assay, recombinant human IP receptor stably expressed in CHO-K1 cells. The format is cell-based. Details: expressed in transfected cells. As to the method: as §1, §2
A short description of data set [1]: Stability in human microsome preparations. The format is in vitro ADME. The conditions noted are these: incubation at 37 °C, human microsomes; read-out: human MS, T1/2. An excerpt: (§3) Table 1 Screening Data for Selected Analogues ^a | column: human and rat MS, T1/2 (min) ^g
Data set [2] is described as follows: Stability in rat microsome preparations. It is filed as in vitro ADME. The settings on record: incubation at 37 °C, rat microsomes; read-out: rat MS, T1/2.
Excerpt: as §3

The mark [3] stands for this setting: HTRF (cAMP) human IP receptor assay; mean of at least three determinations.

Sequence of rat IP (P43253 whole entry): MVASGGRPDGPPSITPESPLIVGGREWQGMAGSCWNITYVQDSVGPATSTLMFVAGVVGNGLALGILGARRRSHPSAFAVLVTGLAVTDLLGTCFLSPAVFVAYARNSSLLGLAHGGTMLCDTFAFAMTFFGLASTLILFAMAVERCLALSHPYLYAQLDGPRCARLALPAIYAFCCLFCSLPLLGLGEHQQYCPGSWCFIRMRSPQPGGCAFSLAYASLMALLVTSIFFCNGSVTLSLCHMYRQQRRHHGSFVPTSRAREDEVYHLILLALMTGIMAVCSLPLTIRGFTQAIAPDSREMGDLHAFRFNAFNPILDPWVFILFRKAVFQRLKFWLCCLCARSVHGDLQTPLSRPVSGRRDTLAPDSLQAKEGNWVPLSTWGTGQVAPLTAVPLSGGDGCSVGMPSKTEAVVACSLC
Sequence of IP (P43119 whole entry): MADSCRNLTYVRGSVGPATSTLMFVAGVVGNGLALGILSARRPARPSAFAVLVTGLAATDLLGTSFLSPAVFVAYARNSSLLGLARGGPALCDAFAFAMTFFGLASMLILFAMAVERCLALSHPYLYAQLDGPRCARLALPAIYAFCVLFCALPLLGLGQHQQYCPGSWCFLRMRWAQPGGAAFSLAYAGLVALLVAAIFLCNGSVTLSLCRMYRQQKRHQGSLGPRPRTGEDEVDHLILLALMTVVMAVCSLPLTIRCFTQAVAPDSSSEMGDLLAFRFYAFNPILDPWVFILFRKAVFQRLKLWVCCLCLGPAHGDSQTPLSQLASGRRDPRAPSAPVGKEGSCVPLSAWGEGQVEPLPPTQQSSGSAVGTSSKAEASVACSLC

As for `O=C(O)COC[C@H]1CC[C@@H](COC(=O)N(c2ccccc2)c2ccccc2)CC1` [5b, 2-(((1s,4s)-4-((Diphenylcarbamoyloxy)methyl)cyclohexyl)methoxy)acetic Acid], the values for the EC50 on rat IP, at human DP1 receptor and at IP (setting [3]) were 472 nM, 1710 nM and 54 nM, respectively. In addition, the Emax at rat IP turned out to be 94%; on human DP1 receptor, 68%; on IP (CHO-K1; read-out: hIP % IA), 81%. In addition, the IC50 – broadly, the midpoint of a concentration-inhibition curve – in the data set with human platelet turned out to be 54 nM.

As to `O=C(O)COC[C@H]1CC[C@@H](COC(=O)N(c2ccccc2)c2ccc(Cl)cc2)CC1` [5d, 2-(((1s,4s)-4-(((4-Chlorophenyl)(phenyl)carbamoyloxy)methyl)cyclohexyl)methoxy)acetic Acid], the figures for the EC50 on rat IP and at human DP1 receptor were 560 nM and 980 nM, respectively. Moreover, the Emax at rat IP stood at 88%; at human DP1 receptor, 60%; at IP (CHO-K1, read-out: hIP % IA), 80%.

With `COc1ccc(N(C(=O)OC[C@H]2CC[C@@H](COCC(=O)O)CC2)c2ccccc2)cc1` [5f, 2-(((1s,4s)-4-(((4-Methoxyphenyl)(phenyl)carbamoyloxy)methyl)cyclohexyl)methoxy)acetic Acid], the values for the 50% effective concentration (EC50) on rat IP and on IP (setting [3]) were more than 10000 nM and 1630 nM, respectively. In addition, the Emax at IP (CHO-K1; read-out: hIP % IA) was 16%.

In the case of `O=C(O)COC[C@H]1CC[C@@H](COC(=O)N(c2ccccc2)c2cccc(F)c2)CC1` [5h, 2-(((1s,4s)-4-(((3-Fluorophenyl)(phenyl)carbamoyloxy)methyl)cyclohexyl)methoxy)acetic Acid], the EC50 (usually the concentration at which the effect is half-maximal) amounted to 561 nM at rat IP, 3870 nM at human DP1 receptor and 62 nM on IP (setting [3]). Further, the Emax amounted to 88% at rat IP, 61% at human DP1 receptor and 79% at IP (CHO-K1; read-out: hIP % IA). In the data set on human platelet, this compound gave an IC50 of 93 nM.

As for `O=C(O)COC[C@H]1CC[C@H](COC(=O)N(c2ccccc2)c2cccc(Cl)c2)CC1` [5i, 2-(((1r,4r)-4-(((3-Chlorophenyl)(phenyl)carbamoyloxy)methyl)cyclohexyl)methoxy)acetic Acid], the half-maximal effective concentration (EC50) turned out to be 272 nM on rat IP and 5070 nM on human DP1 receptor. Besides, the Emax on rat IP stood at 88%; on human DP1 receptor, 30%; at IP (CHO-K1; read-out: hIP % IA), 80%. The half-life in data set [1] and in data set [2] was more than 60 min in each case.

As to `Cc1ccc(N(C(=O)OC[C@H]2CC[C@H](COCC(=O)O)CC2)c2ccccc2)cc1` [5k, 2-(((1r,4r)-4-((Phenyl(p-tolyl)carbamoyloxy)methyl)cyclohexyl)methoxy)acetic Acid], the EC50 at rat IP is 174 nM; on human DP1 receptor, 320 nM; on IP (setting [3]) it was 3.9 nM. Besides, the results for the Emax at rat IP, on human DP1 receptor and on IP (CHO-K1; read-out: hIP % IA) were 99%, 53% and 81%, respectively. The same compound came in with an IC50 in the data set on human platelet of 39 nM.

Consider `O=C(O)COC[C@H]1CC[C@H](COC(=O)N(c2ccccc2)c2ccc(F)c(Cl)c2)CC1` [5n, 2-(((1r,4r)-4-(((3-Chloro-4-fluorophenyl)(phenyl)carbamoyloxy)methyl)cyclohexyl)methoxy)acetic Acid], for which the EC50 on rat IP is 1330 nM; at human DP1 receptor, more than 10000 nM; on IP (setting [3]), 38 nM. Besides, the Emax at rat IP was 102%; on IP (CHO-K1; read-out: hIP % IA), 79%. Also, the half-life in data set [1] and in data set [2] was more than 60 min in each case. In addition, the IC50 in the data set on human platelet was found to be 142 nM.

As to `COc1ccc(N(C(=O)OC[C@H]2CC[C@H](COCC(=O)O)CC2)c2cccc(F)c2)cc1` [5p, 2-(((1r,4r)-4-(((3-Fluorophenyl)(4-methoxyphenyl)carbamoyloxy)methyl)cyclohexyl)methoxy)acetic Acid], the EC50 on rat IP is 1570 nM; on human DP1 receptor it was 1030 nM; on IP (setting [3]), 5.2 nM. Also, the Emax stood at 60% on rat IP, 65% on human DP1 receptor and 70% at IP (CHO-K1; read-out: hIP % IA). This compound registered an IC50 with human platelet of 43 nM.

`O=C(O)COC[C@H]1CC[C@H](COC(=O)N(c2ccc(Cl)cc2)c2cccc(F)c2)CC1` [5q, 2-(((1r,4r)-4-(((4-Chlorophenyl)(3-fluorophenyl)carbamoyloxy)methyl)cyclohexyl)methoxy)acetic Acid]: the EC50 at rat IP was 3190 nM; on human DP1 receptor, 1140 nM; at IP (setting [3]) it was 18.5 nM. Moreover, the Emax at rat IP amounted to 44%; on human DP1 receptor, 35%; at IP (CHO-K1; read-out: hIP % IA), 70%. The half-life in data set [1] and in data set [2] was more than 60 min throughout.

As to `O=C(O)COC[C@H]1CC[C@H](COC(=O)N(c2ccc(F)cc2)c2ccc(F)cc2)CC1` [5r, 2-(((1r,4r)-4-((Bis(4-fluorophenyl)carbamoyloxy)methyl)cyclohexyl)methoxy)acetic Acid], the EC50 is more than 10000 nM on rat IP, 860 nM at human DP1 receptor and 41 nM at IP (setting [3]). Also, the values for the Emax at human DP1 receptor and at IP (CHO-K1; read-out: hIP % IA) were 45% and 65%, respectively.

Consider `O=C(O)COC[C@H]1CC[C@H](COC(=O)N(c2ccc(F)cc2)c2cccc(F)c2)CC1` [5s, 2-(((1r,4r)-4-(((4-Fluorophenyl)(3-fluorophenyl)carbamoyloxy)methyl)cyclohexyl)methoxy)acetic Acid], for which the EC50 on rat IP stood at 1630 nM; at human DP1 receptor, 808 nM; at IP (setting [3]), 7.8 nM. The Emax on rat IP came to 54%; on human DP1 receptor, 57%; at IP (CHO-K1; read-out: hIP % IA), 76%. The half-life in data set [1] and in data set [2] was more than 60 min in each case. The same compound registered an IC50 in the data set on human platelet of 30 nM.

On to `O=C(O)COC[C@H]1CC[C@H](COC(=O)N(c2cccc(F)c2)c2ccc(Cl)c(F)c2)CC1` [5t, 2-(((1r,4r)-4-(((4-Chloro-3-fluorophenyl)(3-fluorophenyl)carbamoyloxy)methyl)cyclohexyl)methoxy)acetic Acid], for which the EC50 on rat IP was 2720 nM; on human DP1 receptor, more than 10000 nM; on IP (setting [3]), 23 nM. For the same compound, the results for the Emax at rat IP and at IP (CHO-K1; read-out: hIP % IA) were 56% and 75%, respectively. The half-life in data set [1] and in data set [2] was more than 60 min in each case.

Consider `O=C(O)COC[C@H]1CC[C@H](COC(=O)N(c2ccc(O)cc2)c2ccc(Cl)cc2)CC1` [M2], for which, at IP (CHO-K1; read-out: hIP % IA), the Emax is 93%. Besides, the EC50 on IP (setting [3]) turned out to be 25 nM.

`O=C(COC[C@H]1CC[C@H](COC(=O)N(c2ccc(O)cc2)c2ccc(Cl)cc2)CC1)NCCS(=O)(=O)O` [M3]: the Emax on IP (CHO-K1; read-out: hIP % IA) is 78%. For the same compound, the EC50 at IP (setting [3]) was 1050 nM.

Regarding `CC(C)N(CCCCOCC(=O)NS(C)(=O)=O)c1cnc(-c2ccccc2)c(-c2ccccc2)n1` [compound 1, selexipag, reference compound], the Emax on rat IP was 100%; on human DP1 receptor, 48%; at IP (CHO-K1; read-out: hIP % IA) it was 98%. Further, the half-life in data set [1] and in data set [2] was more than 60 min in each case. The compound also returned an IC50 in the data set on human platelet of 62 nM.

For the origin of these results see PMC11602115 (Journal of Medicinal Chemistry, 2017).
